Measured values: patent publication US10807944B2, “HDAC inhibitor compounds and methods of treatment” (priority 2014, dated 2020)
Where two headings read alike, the source gives them in different places.

What was measured:
HDAC2 = HDAC2 (Homo sapiens (Human), UniProt Q92769); assay: HDAC2 in vitro inhibition, dose response; format: biochemical
HDAC3 = HDAC3 (Homo sapiens (Human), UniProt O15379); assay: HDAC3 in vitro inhibition, dose response; format: biochemical
Chain of HDAC3 (O15379 whole entry): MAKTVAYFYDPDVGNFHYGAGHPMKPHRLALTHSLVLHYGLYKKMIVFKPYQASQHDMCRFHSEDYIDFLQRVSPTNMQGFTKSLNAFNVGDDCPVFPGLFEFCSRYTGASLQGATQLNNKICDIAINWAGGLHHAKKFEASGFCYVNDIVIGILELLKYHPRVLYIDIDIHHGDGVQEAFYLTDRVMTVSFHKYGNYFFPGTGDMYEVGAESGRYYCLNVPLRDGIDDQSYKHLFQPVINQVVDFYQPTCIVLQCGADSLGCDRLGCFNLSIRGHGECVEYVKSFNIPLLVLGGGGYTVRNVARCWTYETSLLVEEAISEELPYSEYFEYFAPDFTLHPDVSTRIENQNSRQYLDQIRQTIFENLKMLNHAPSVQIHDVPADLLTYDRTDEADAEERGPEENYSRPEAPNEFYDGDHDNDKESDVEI
Chain of HDAC3 (Q9Y618 395-489 partner): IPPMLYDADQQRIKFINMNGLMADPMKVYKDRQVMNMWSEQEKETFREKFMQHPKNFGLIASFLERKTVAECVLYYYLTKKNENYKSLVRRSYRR

Chain of HDAC2 (Q92769 whole entry): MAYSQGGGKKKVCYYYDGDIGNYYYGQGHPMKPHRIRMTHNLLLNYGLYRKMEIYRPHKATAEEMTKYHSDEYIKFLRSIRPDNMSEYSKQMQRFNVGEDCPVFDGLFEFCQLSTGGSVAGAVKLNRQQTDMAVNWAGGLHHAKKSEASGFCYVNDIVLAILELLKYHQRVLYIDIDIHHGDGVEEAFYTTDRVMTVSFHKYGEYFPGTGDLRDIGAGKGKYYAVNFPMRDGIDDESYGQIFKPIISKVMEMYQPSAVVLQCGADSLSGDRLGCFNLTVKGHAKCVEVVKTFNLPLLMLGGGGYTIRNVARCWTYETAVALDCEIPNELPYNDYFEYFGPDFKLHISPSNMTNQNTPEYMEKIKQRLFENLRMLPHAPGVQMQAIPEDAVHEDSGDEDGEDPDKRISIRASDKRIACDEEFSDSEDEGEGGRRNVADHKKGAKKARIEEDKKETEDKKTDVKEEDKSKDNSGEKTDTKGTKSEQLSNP

Structure (SMILES): CCCCNNC(=O)c1ccc(Br)cc1 [UF010, 4-bromo-N′-butylbenzohydrazide]
- IC50 (HDAC2; Table 1, read-out: Inhibitory Potency (IC50) HDAC 2): 100 nM
- IC50 (HDAC2; Table 2, read-out: HDAC 2 IC50): 100 nM
- IC50 (HDAC3; Table 1, read-out: Inhibitory Potency (IC50) HDAC 3): 60 nM
- IC50 (HDAC3; Table 2, read-out: HDAC 3 IC50): 60 nM
